Experimental data published in patent US4892887A, “N,N'-bis(sulfonyl)hydrazines having antineoplastic activity” (Yale University, priority 1988, dated 1990).
Read-outs that look alike come from different tables or passages of the source.

Legend:
[1] = Alkylation of 4-(4-nitrobenzyl)pyridine, absorbance at 540 nm (modified Wheeler and Chumley); settings: for Relative Alkylating Activity: (O.D. test sample/O.D. compound 8) × 100, pH 7.4, 37°C, 540 nm; for absorbance at 540 nm (alkylating activity): comparison compounds
Procedure: Since compounds 1-13 were conceived as prodrugs of the alkylating species (II), representative compounds of this class, viz. 1-6, 8 and 10 were tested for alkylating ability using a modification of the method of Wheeler and Chumley. This method measured the absorbance at 540 nm of the alkylated product of 4-(4-nitrobenzyl)pyridine.
^a A solution of the test sample (12 micromoles) in 1 ml of acetone,
ml of distilled water and 1 ml of TrisHCl buffer (pH 7.4) was incubated
with 4(4-nitrobenzyl) pyridine (148 micromoles in 0.4 ml of acetone) for
hr at 37°C. Following additon of 2 ml of acetone and 1.5 ml of 0.2
M NaOH, the material was extracted with 5 ml of ethyl acetate. The
absorbance was determined at 540 nm 30 seconds after the addition of the
sodium hydroxide solution. The greater the absorbance value, the greater
the degree of alkylation
^b Relative Alkylating activity = (O.D. for test sample/O.D. for […]

[2] = system: L1210 leukemia; assay: Survival time of mice bearing the L1210 leukemia; type: in vivo, mouse (CDF-1 mice); settings: for Av. Change wt. %: L1210 mice; for response vs control in vivo at 50 mg/kg / response vs control in vivo at 100 mg/kg / response vs control in vivo at 150 mg/kg: Mus musculus, read-out: % T/C; for Antineoplastic Activity (max. % T/C from Table III): Table II, L1210 leukemia; for activity against the L1210 leukemia (in words): mouse, in vivo; for maximum % T/C, L1210 leukemia: comparison compounds; for Max. % T/C L1210 Leukemia: Table V
Text: The ascites cell forms of the L1210 leukemia, Sarcoma 180 and P388 leukemia were propagated in CDF-1 mice. […] Mice were weighed during the course of the experiments, and the percentage change in body weight from the onset to termination of therapy was used as an indication of host toxicity.
Each value represents the average of 5 animals per group.

[3] = system: B16 melanoma; assay: Survival time of mice bearing the B16 melanoma; type: in vivo, mouse (C57B1 mice); settings: for Max. % T/C: Table IV, B16, at optimum effective daily dose; for Av. Change in wt., %: at optimum effective daily dose, B16 mice; for Max. % T/C B16 Melanoma: Table V
Procedure: This tumor was propagated in C57B1mice. Transplantation was carried out by removing tumors from donor mice bearing 14-day subcutaneous tumor growths. The tissue was fragmented to make a well-dispersed cellular suspension and diluted with Fischer's medium without serum so that one gram of tissue was suspended in 5 ml of solution. A portion (0.2 ml) of the resulting cell suspension was injected intraperitoneally into each recipient animal. All compounds were administered over a wide range of dosage levels by intraperitoneal injection, beginning 24 hours after tumor implantation, once daily for 6 consecutive days. The test compounds were injected as fine suspensions following homogenization in 2 to 3 drops of 20% aqueous Tween 80 and then made up to volume with isotonic saline. […] Mice were weighed during the course of the experiments, and the percent change in body weight from onset to termination of therapy was used as an indication of drug toxicity. Determination of the sensitivity of neoplasms to these agents was based on the prolongation of survival time afforded by the drug treatments.
^a Administered once daily for six consecutive days, beginnign 24
hours after tumor transplanation, with 5 animals being used per group.
^b Average change in body weight from onset to termination of therapy
^c % T/C = average survival time of treated/control animals ×
100. Each value represents the average of 5 animals per group.

[4] = 50 mg/kg once daily for six days
[5] = 100 mg/kg once daily for six days
[6] = 150 mg/kg once daily for six days
[7] = 144 h, 50 mg/kg once daily for six days, L1210
[8] = 144 h, 100 mg/kg once daily for six days, L1210
[9] = 144 h, 150 mg/kg once daily for six days, L1210

SMILES	alkylating activity / absorbance (in words) [1]	Relative Alkylating Activity [1]	Average Survival Time of Treated Animals, days ± SE [2, 4]	Av. Change wt. % [2, 4]	Average Survival Time of Treated Animals, days ± SE [2, 5]	Av. Change wt. % [2, 5]	Average Survival Time of Treated Animals, days ± SE [2, 6]	Av. Change wt. % [2, 6]	response vs control in vivo at 50 mg/kg [2, 7]	response vs control in vivo at 100 mg/kg [2, 8]	Antineoplastic Activity (max. % T/C from Table III) [2]	activity against the L1210 leukemia (in words) [2]	Max. % T/C [3]	Av. Change in wt., % [3]	response vs control in vivo at 150 mg/kg [2, 9]	Max. % T/C L1210 Leukemia [2]	Max. % T/C B16 Melanoma [3]	also measured
CN(NS(=O)(=O)c1ccc(Cl)cc1)S(=O)(=O)c1ccc(Cl)cc1 [Compound 10, N,N'-bis (p-chlorobenzenesulfonyl)-N-methylhydrazine]	highest	185	9.2 ± 0.2 days	+4.1%	11.4 ± 0.8 days	+4.0%	11.8 ± 1.1 days	+1.3%	97%	120%	124 % T/C	virtually inactive	163 % T/C	+4.8%	–	–	–	rate of decomposition to a reactive species (in words) [1]: rapid decomposition to a reactive species; response vs control in vivo at 150 mg/kg ([2]; L1210, 144 h): 124%
COc1ccc(S(=O)(=O)N(C)NS(=O)(=O)c2ccc(C)cc2)cc1 [Compound 4]	lowest	82	10.2 ± 0.5 days	+12.6%	10.2 ± 0.2 days	+14.8%	10.4 ± 0.2 days	+9.8%	111%	111%	113 % T/C	virtually inactive	151 % T/C	-14.0%	113%	–	–	–
Cc1ccc(S(=O)(=O)N(C)NS(=O)(=O)c2ccc(Cl)cc2)cc1 [Compound 3, N'-(p-chlorobenzenesulfonyl)-N-methyl-N-(p-toluenesulfonyl)hydrazine]	–	135	17.4 ± 1.4 days	+3.7%	10.8 ± 0.6 days	+10.0%	11.2 ± 1.3 days	+6.0%	–	117%	189 % T/C	active against the L1210 leukemia	171 % T/C	+2.9%	122%	–	–	rate of decomposition to a reactive species (in words) [1]: decomposed less rapidly than compound 10; response vs control in vivo at 50 mg/kg ([2]; L1210, 144 h): 189%
Cc1ccc(S(=O)(=O)NN(C)S(=O)(=O)c2ccc(Cl)cc2)cc1 [Compound 5, N-(p-chlorobenzenesulfonyl)-N-methyl-N'-(p-toluenesulfonyl)hydrazine]	–	169	10.4 ± 0.4 days	+5.1%	13.0 ± 2.2 days	+5.5%	10.0 ± 0.3 days	-4.6%	113%	141%	141 % T/C	active against the L1210 leukemia	162 % T/C	-0.4%	109%	–	–	rate of decomposition to a reactive species (in words) [1]: decomposed less rapidly than compound 10
O=S(=O)(NNS(=O)(=O)c1ccccc1)c1ccccc1 [N,N'-bis(benzenesulfonyl )hydrazine, reference compound]	negligible alkylating activity	–	–	–	–	–	–	–	–	–	–	inactive against the L1210 leukemia	–	–	–	–	–	absorbance at 540 nm (alkylating activity) [1]: 0; maximum % T/C, L1210 leukemia [2]: 101 % T/C; activity against the L1210 leukemia (in words) ([2]; listed as N,N'-bis(benzenesulfonyl)hydrazine): inactivity
Cc1ccc(S(=O)(=O)N(C)NS(=O)(=O)c2ccccc2)cc1 [Compound 1, N'-benzenesulfonyl-N-methyl-N-(p-toluenesulfonyl)hydrazine]	–	118	15.0 ± 1.4 days	+2.0%	10.6 ± 0.2 days	+5.4%	10.8 ± 0.5 days	-2.7%	163%	115%	163 % T/C	–	168 % T/C	+8.5%	117%	–	–	–
CN(NC(=O)c1ccccc1)C(=O)c1ccccc1 [N,N'-dibenzoyl-N-methylhydrazine, reference compound]	negligible alkylating activity	–	–	–	–	–	–	–	–	–	–	inactive against the L1210 leukemia	–	–	–	–	–	absorbance at 540 nm (alkylating activity) [1]: 10; maximum % T/C, L1210 leukemia [2]: 97 % T/C
Cc1ccc(S(=O)(=O)NN(C)S(=O)(=O)c2ccccc2)cc1 [Compound 14]	–	–	–	–	–	–	–	–	–	–	–	–	–	–	–	153 % T/C	178 % T/C	–
CN(NS(=O)(=O)c1ccc2ccccc2c1)S(=O)(=O)c1ccc(Cl)cc1 [Compound 33, N-(p-chlorobenzenesulfonyl)-N-methyl-N'-(2-naphthalenesulfonyl)hydrazine]	–	–	–	–	–	–	–	–	–	–	–	–	–	–	–	109 % T/C	153 % T/C	–
COc1ccc(S(=O)(=O)N(C)NS(=O)(=O)c2ccccc2)cc1 [Compound 23]	–	–	–	–	–	–	–	–	–	–	–	–	–	–	–	178 % T/C	151 % T/C	–
COc1ccc(S(=O)(=O)NN(C)S(=O)(=O)c2ccc(C)cc2)cc1 [Compound 2, N'-(p-methoxybenzenesulfonyl)-N-methyl-N-(p-toluenesulfonyl)hydrazine]	–	95	10.8 ± 0.6 days	+7.7%	15.0 ± 2.3 days	+7.8%	13.2 ± 2.2 days	+2.9%	117%	163%	163 % T/C	–	200 % T/C	+9.1%	143%	–	–	–
COc1ccc(S(=O)(=O)N(C)NS(C)(=O)=O)cc1 [Compound 29]	–	–	–	–	–	–	–	–	–	–	–	highest increases in survival time	–	–	–	274 % T/C	204 % T/C	–
COc1ccc(S(=O)(=O)NN(C)S(=O)(=O)c2ccccc2)cc1 [Compound 15]	–	–	–	–	–	–	–	–	–	–	–	–	–	–	–	136 % T/C	191 % T/C	–
